# Assay results from publication PMC10945559, “Forgotten Natural Products: Semisynthetic Development of Blasticidin S As an Antibiotic Lead” (ACS Medicinal Chemistry Letters, 2024).
# Like-named read-outs stand apart in the source and are kept apart here.
# What was measured:
# [1] = tested on: S. aureus 8810; test: Broth microdilution antibacterial assay; assay type: cell-based, Staphylococcus aureus; conditions: for Selectivity index (CC50/IC50): MRC-5 CC50 / S. aureus IC50; for IC50 / MIC: Staphylococcus aureus, 8810; for IC50: average of two biological replicates ± S.D., read-out: IC50
# Protocol: (§1) Antibacterial Assay Procedure
# (§2) Broth Microdilution Assays
# (§3) Media and solutions were autoclaved or sterile filtered prior to use and manipulations were carried out in a laminar flow hood. Antibacterial testing was performed in polypropylene 96 -well flat bottom plates. The minimal inhibitory concentration of blasticidin S ( 1) hydrochloride, P10 (2), and derivatives 15–22 were assessed against Staphylococcus aureus ΔNorA, S. aureus 8810, methicillin-resistant S. aureus (MRSA) ATCC 43300, Enterococcus faecalis ATCC 29212, vancomycin-resistant Enterococcus, Klebsiella pneumoniae ATCC 29665, Pseudomonas aeruginosa, and Acinetobacter baumannii ATCC 17978 using serial dilutions. Doxycycline (Gold Bio) as a positive control and the vehicle as a negative control. Stock solutions of each compound were prepared at 5.12 mg/mL in 50% DMSO/water and serially diluted in 50% DMSO/water to create master plates. From the master plates, 10 μL of each dilution was applied to test plates using a Bravo automated liquid transfer system (Agilent). Bacteria previously grown overnight (37 °C, 120 – 200 RPM), in LB broth were diluted to an OD600 of 0.0 5 in cation-adjusted Mueller-Hinton broth, grown to an OD600 of ~0.5, and diluted to an OD600 of 0.004 in cation-adjusted Mueller-Hinton broth. These diluted cultures were applied to the test plates (190 μL per test well) resulting in final concentrations of the test compounds of 256–2 μg/mL. Growth controls (wells with inoculated media but no vehicle or test compounds) were included to assess any potential toxicity from the vehicle. The plates were incubated at 37 °C for 16–18 h, except for VRE and E. faecalis, which were incubated at 37 °C for 24 h. Inhibition was determined by measuring the optical density at 600 nm (OD600) with a Cytation 3 plate reader (BioTek). The optical density measurements were normalized to the positive and negative controls and the vehicle and growth controls were compared and found to be indistinguishable, indicating no toxicity from the vehicle used. The MIC was the lowest concentration that inhibited >90% of growth. Two biological replicates were performed in duplicate. MIC values are reported […]
# (§4) as a range from biological replicates. Inhibition curves were generated using Prism (GraphPad).
# (§5) The IC50 values reported in Table 2 are the average of the two biological replicates ± standard […]
# (§6) Cytotoxicity Assay Procedure
# (§7) Human lung fibroblast cells, MRC -5 (CCL-171), were cultured at 37℃ with 5% CO2 and were plated at 5000 cells/well in a 96 -well plate. Compounds 1, 2, and 15-22 were initially prepared at concentrations of 5.12 mg/mL in a vehicle of 50% DMSO. Dilutions of the compounds (4 – 512 μg/mL) were then prepared in growth medium containing Dulbecco’s modified Eagle’s medium (DMEM) with high glucose, L -glutamine, and sodium pyruvate supplemented with 10% fetal bovine serum (FBS), 1% non -essential amino acids, and 0.1% gentamicin sulfate, and 25mM HEPES. The vehicle (50% DMSO) was also prepared via the sa me dilution series to serve as a control. Growth media was removed from the cells and replaced with the same volume of each compound dilution. Cells were incubated for 24 h , after which CellTiter 96® AQueous One Solution Reagent was added to each well as recommended by the manufacturer’s protocol (Promega CellTiter 96 AQueous One Solution Cell Proliferation Assay) and further incubated for 4 h. After incubation, absorbance was measured at 490 nm on an Infinite M plex multimode microplate reader with i -control Tecan software. Viability was calculated by subtracting media only absorbance values and normalizing to the vehicle control at each concentration. The presented data is one assay performed in triplicate that is representative of multiple trials. Data for the 256 and 512 μg/mL concentrations were removed from analysis due to vehicle toxicity […]
# (§8) CC50 concentrations were determined via the ED50 Plus v1.0 software (https://archive.org/details/ed50v10_zip).
# [2] = tested on: methicillin-resistant S. aureus (MRSA) ATCC 43300; test: Broth microdilution antibacterial assay; assay type: cell-based, Staphylococcus aureus; conditions: for Selectivity index (CC50/IC50): MRC-5 CC50 / MRSA IC50; for IC50 / MIC: Staphylococcus aureus; for IC50: average of two biological replicates ± S.D., read-out: IC50
# Protocol: as §1, §2, §3, §4, §5, §6, §7, §8
# [3] = tested on: Acinetobacter baumannii ATCC 17978; test: Broth microdilution antibacterial assay; assay type: cell-based; conditions: for IC50 / MIC: Acinetobacter baumannii, ATCC17978, A. baumannii; for IC50: average of two biological replicates ± S.D., read-out: IC50; for MIC: lowest concentration inhibiting >90% of growth, range from biological replicates, read-out: MIC; for Selectivity index (CC50/IC50): MRC-5 CC50 / A. baumannii IC50
# Protocol: as §1, §2, §3, §4, §5, §6, §7, §8
# [4] = tested on: Enterococcus faecalis ATCC 29212; test: Broth microdilution antibacterial assay; assay type: cell-based; conditions: for MIC / IC50: Enterococcus faecalis, ATCC29212; for IC50: average of two biological replicates ± S.D. (18: one biological replicate), read-out: IC50; for Selectivity index (CC50/IC50): MRC-5 CC50 / E. faecalis IC50
# Protocol: as §1, §2, §3, §4, §5, §6, §7, §8
# [5] = tested on: Klebsiella pneumoniae ATCC 29665; test: Broth microdilution antibacterial assay; assay type: cell-based; conditions: for IC50 / MIC: Klebsiella pneumoniae, ATCC29665, K. pneumoniae; for IC50: average of two biological replicates ± S.D., read-out: IC50; for MIC: lowest concentration inhibiting >90% of growth, range from biological replicates, read-out: MIC; for Selectivity index (CC50/IC50): MRC-5 CC50 / K. pneumoniae IC50
# Protocol: as §1, §2, §3, §4, §5, §6, §7, §8
# [6] = tested on: Pseudomonas aeruginosa; test: Broth microdilution antibacterial assay; assay type: cell-based; conditions: for Selectivity index (CC50/IC50): MRC-5 CC50 / P. aeruginosa IC50; for IC50 / MIC: Pseudomonas aeruginosa, P. aeruginosa; for IC50: average of two biological replicates ± S.D., read-out: IC50; for MIC: lowest concentration inhibiting >90% of growth, range from biological replicates, read-out: MIC
# Protocol: as §1, §2, §3, §4, §5, §6, §7, §8
# [7] = tested on: Staphylococcus aureus ΔNorA; test: Broth microdilution antibacterial assay; assay type: cell-based; conditions: for Selectivity index (CC50/IC50): MRC-5 CC50 / S. aureus ΔNorA IC50; for IC50 / MIC: Staphylococcus aureus
# Protocol: as §1, §2, §3, §4, §5, §6, §7, §8
# [8] = tested on: vancomycin-resistant Enterococcus (VRE); test: Broth microdilution antibacterial assay; assay type: cell-based; conditions: for MIC / IC50: Enterococcus, VRE; for IC50: average of two biological replicates ± S.D., read-out: IC50; for Selectivity index (CC50/IC50): MRC-5 CC50 / VRE IC50
# Protocol: as §1, §2, §3, §4, §5, §6, §7, §8
# [9] = in vitro; assay type: cell-based, human; conditions: human; MRC-5 (lung fibroblast); 24 h; one biological replicate (n = 3); read-out: CC50 for human cells
# Protocol: as §4, §5, §6, §7, §8
# (§9) Figure S41. The effect of compounds on cell viability. The lines represent non -linear regression curves, and error bars represent means ± […]
# (§10) SD (n=3). […]
# [10] = tested on: MRC-5 lung fibroblast cells; test: in vitro; assay type: cell-based, human; conditions: average of SI (CC50/IC50) over the bacteria tested
# Protocol: as §4, §5, §6, §7, §8, §9, §10
# [11] = S. aureus, lowest concentration inhibiting >90% of growth, range from biological replicates, read-out: MIC
# [12] = average MIC, Table S3, read-out: Average Activity against S. aureus
# [13] = MRSA, lowest concentration inhibiting >90% of growth, range from biological replicates, read-out: MIC
# [14] = average MIC, Table S3, read-out: Average Activity against MRSA
# [15] = E. faecalis, 24 h, lowest concentration inhibiting >90% of growth, range from biological replicates, read-out: MIC
# [16] = average MIC, Table S3, read-out: Average Activity against E. faecalis
# [17] = average MIC, Table S3, read-out: Average Activity against VRE
# [18] = 24 h, lowest concentration inhibiting >90% of growth, range from biological replicates, read-out: MIC
SMILES,Selectivity index (CC50/IC50) [1],IC50 ([1]; S. aureus),"MIC [1, 11]","MIC [1, 12]",Selectivity index (CC50/IC50) [2],IC50 ([2]; MRSA),"MIC [2, 13]","MIC [2, 14]",IC50 [3],MIC [3],Selectivity index (CC50/IC50) [3],"MIC [4, 15]",IC50 ([4]; E. faecalis),"MIC [4, 16]",Selectivity index (CC50/IC50) [4],IC50 [5],MIC [5],Selectivity index (CC50/IC50) [5],Selectivity index (CC50/IC50) [6],IC50 [6],other results
"CN(CC[C@H](N)CC(=O)N[C@H]1C=C[C@H](n2ccc(N)nc2=O)O[C@@H]1C(N)=O)C(=N)N [Compound 2, P10]",1.3,4.7 ± 1 µg/mL,32 µg/mL,32 µg/mL,0.8,7 ± 1 µg/mL,32 µg/mL,32 µg/mL,4.5 ± 0.4 µg/mL,16 µg/mL,1.3,16 to 32 µg/mL,5.1 ± 4.3 µg/mL,16 µg/mL,1.2,7.6 ± 1.3 µg/mL,32 µg/mL,0.8,0.4,14.6 ± 1.5 µg/mL,"MIC [6]: 64 µg/mL; Selectivity index (CC50/IC50) [7]: 0.4; IC50 [7]: 14 ± 0.3 µg/mL; MIC [7]: 64 to 128 µg/mL; MIC [8, 17]: 64 µg/mL; MIC [8, 18]: 64 µg/mL; IC50 [8]: 15 ± 8.6 µg/mL; Selectivity index (CC50/IC50) [8]: 0.4; CC50 at 24 h [9]: 5.9 µg/mL; average selectivity index [10]: 0.8"
C#CCNC(=O)[C@H]1O[C@@H](n2ccc(N)nc2=O)C=C[C@@H]1NC(=O)C[C@@H](N)CCN(C)C(=N)N [Compound 19],9.2,3.6 ± 0.3 µg/mL,32 µg/mL,32 µg/mL,4.8,6.9 ± 1.2 µg/mL,16 to 32 µg/mL,24 µg/mL,21.1 ± 3.9 µg/mL,128 µg/mL,1.6,16 to 32 µg/mL,7.6 ± 1.5 µg/mL,16 µg/mL,4.4,40.4 ± 6.2 µg/mL,128 µg/mL,0.8,2.1,16.1 ± 0.9 µg/mL,"MIC [6]: 64 µg/mL; Selectivity index (CC50/IC50) [7]: 2.0; IC50 [7]: 16.2 ± 0.9 µg/mL; MIC [7]: 64 to 128 µg/mL; MIC [8, 17]: 64 µg/mL; MIC [8, 18]: 64 µg/mL; IC50 [8]: 21.1 ± 4.8 µg/mL; Selectivity index (CC50/IC50) [8]: 1.6; CC50 at 24 h [9]: 33.1 µg/mL"
